Source: US10995068B2, “Synthetic sphingolipid-like molecules, drugs, methods of their synthesis and methods of treatment” (The Regents of the University of California, priority 2015, dated 2021)

Experiments:
[1] = Blood cell count of pDKO mice; assay type: in vivo; details: for % lymphocyte / % neutrophil / Red Blood Cells / White Blood Cells / Hematocrit: pDKO mice, at sacrifice; for White Blood Cells: Means ± SEM, n = 4; for Hematocrit: in % (unit assumed)
Description: In vivo studies. Experiments conducted in mice were performed in accordance with the Institutional Animal Care and Use Committee of University of California, Irvine following a power analysis conducted in consultation with the Biostatistics Shared Resource of Chao Family Comprehensive Cancer Center at UCI. Xenografts were produced by injecting 5 million cells subcutaneously in the flank of 10-16 week-old male or female NSG mice. Prostate isografts were produced in the same manner but in male 6-8 wk old C57BL/6 mice. Once tumors reached 100 mm^3, SH-BC-893 was administered by intraperitoneal (i.p.) injection or oral gavage as indicated. Tumor volume was calculated using the formula, volume (mm^3)=length [mm]×(width [mm])^2×0.52; BLI was measured using an IVIS imaging system (Xenogen). To generate pDKO mice on the C57BL6 background, Pten^flox mice (stock No. 0045597) and p53^flox mice (stock No. 008462) were obtained from the Jackson Laboratory and PB-Cre4 mice (strain #01XF5) were obtained from the NCI-Frederick Mouse Repository. Age-matched cohorts of pDKO males were generated by in vitro fertilization executed with the assistance of the Transgenic Mouse Facility at UC Irvine. Treatment was begun at 6-7 wks of age. […] Tumor samples were processed and imaged by the Pathology Research Services Core Facility at UC Irvine. Blood chemistry was analyzed by IDEXX BioResearch and complete blood counts were performed using a Hemavet hematology system.

[2] = tested on: mouse prostate cancer epithelial cells (mPCE); experiment: LDL receptor, LDL uptake and lipid droplets in mPCE cells; assay type: cell-based
Description: To determine the sensitivity, SH-BC-893 was evaluated in a validated genetically-engineered mouse model for invasive castration-resistant prostate cancer that lacks p53 and PTEN expression exclusively in the prostate (pDKO) (Wu X, et al. Am J Clin Exp Urol. 2014; 2(2):111-20; Schwarzenböck S, et al. Theranostics. 2012; 2(3):318-330; Chen Z, et al. Nature. 2005; 436(7051):725-730; the disclosures of which are herein incorporated by reference). […] SH-BC-893, however, still produced a phenotype consistent with starvation as the bound NADH fraction increased and cell permeant nutrients protected mPCE cells from death (FIGS. 65A and 65C). Prostate cancer cells depend on exogenous LDL for growth and survival. […]
Light Microscopy: Brightfield and epifluorescence microscopy were conducted using a Nikon TE2000-S fluorescence microscope; confocal microscopy was performed on a Zeiss LSM780 confocal microscope or Nikon Eclipse Ti spinning disk confocal microscope. […] Co-localization was determined using JACoP plugin in ImageJ software. Macropinocytosis was measured after 16 h incubation in serum-free DMEM. p53−/−; LSL-K-RasG12D MEFs before (LSL) or after (KRasG12D) introduction of Cre were serum starved for 16 h and then treated with macropinocytosis inhibitor 5-(N-ethyl-N-isopropyl) amiloride (EIPA, 75 μM) for 1 h or SH-BC-893 for 6 h. […]

CCCCCCCCc1ccc([C@H]2CCN[C@@H]2CO)cc1.Cl [Compound 5, (2S,3R)-2-(hydroxymethyl)-3-(4-octylphenyl)Pyrrolidinium chloride]
complete blood counts (in words) ([1]; mice treated with 120 mg/kg for 11 weeks): normal complete blood counts | % lymphocyte ([1]; 60 mg/kg): 77 ± 4% | % neutrophil ([1]; 60 mg/kg): 14 ± 3% | Red Blood Cells ([1]; 60 mg/kg): 8 ± 1 M/μL | White Blood Cells ([1]; 60 mg/kg): 5 ± 1 10^3 cells/μL | Hematocrit ([1]; 60 mg/kg): 32 ± 5 | % lymphocyte ([1]; 120 mg/kg): 73 ± 5% | % neutrophil ([1]; 120 mg/kg): 19 ± 5% | Red Blood Cells ([1]; 120 mg/kg): 9 ± 1 M/μL | White Blood Cells ([1]; 120 mg/kg): 8 ± 1 10^3 cells/μL | Hematocrit ([1]; 120 mg/kg): 41 ± 3 | surface levels of the LDL receptor (LDLr), LDL uptake, and lipid droplet accumulation [2]: dramatically decreased
